Test results: patent publication US20260262643A1, “HERBICIDAL BENZOXAZINES” (FMC CORPORATION, priority 2022, published 2026)

Tests used:
[1] = system: ryegrass, Italian; assay: Test C preemergence; assay type: in vivo, Lolium multiflorum
How it was run: (§1)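 Test material, in non-phytotoxic solvent with surfactant, was sprayed on the soil directly after seeding (preemergence) or on young plants of 2–10 cm with one to two leaves (postemergence). Greenhouse, 10 days; 0–100 visual control scale.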

[2] = system: kochia; assay: Test C preemergence; assay type: in vivo, Bassia scoparia
How it was run: as §1

[3] = system: oat, wild; assay: Test C postemergence; assay type: in vivo, Avena fatua; settings: 10 days, 0 to 100 scale (0 no effect, 100 complete control)
How it was run: as §1

[4] = system: pigweed, palmer; assay: Test C postemergence; assay type: in vivo, Amaranthus palmeri; settings: 10 days, 0 to 100 scale (0 no effect, 100 complete control)
How it was run: as §1

[5] = system: foxtail, giant; assay: Test C postemergence; assay type: in vivo, Setaria faberi; settings: 10 days, 0 to 100 scale (0 no effect, 100 complete control)
How it was run: as §1

[6] = system: blackgrass; assay: Test C postemergence; assay type: in vivo, Alopecurus myosuroides; settings: 10 days, 0 to 100 scale (0 no effect, 100 complete control)
How it was run: as §1

[7] = system: oat, wild; assay: Test C preemergence; assay type: in vivo, Avena fatua
How it was run: as §1

[8] = system: rice; assay: Test D flooded paddy test; assay type: in vivo, Oryza sativa; settings: 250 g ai/ha, applied to paddy water, visual rating after 13 to 14 days, scale 0 to 100 (0 no effect, 100 complete control)
How it was run: (§2)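 Seedlings reached the 2-leaf stage, then pots were flooded to 3 cm over the soil surface. Compound was applied into the water, depth was maintained, and plants stayed in the greenhouse 13 to 14 days before visual scoring (0–100) relative to controls.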

[9] = system: ragweed; assay: Test C preemergence; assay type: in vivo, Ambrosia artemisiifolia; settings: Preemergence, 125 g ai/ha; 0 to 100 scale, 0 no effect, 100 complete control
How it was run: as §1

[10] = system: soybean; assay: Test C preemergence; assay type: in vivo, Glycine max
How it was run: as §1

[11] = system: corn; assay: Test C postemergence; assay type: in vivo, Zea mays; settings: 10 days, 0 to 100 scale (0 no effect, 100 complete control)
How it was run: as §1

[12] = system: galium; assay: Test C postemergence; assay type: in vivo, Galium aparine; settings: 10 days, 0 to 100 scale (0 no effect, 100 complete control)
How it was run: as §1

[13] = system: ragweed; assay: Test C postemergence; assay type: in vivo, Ambrosia artemisiifolia; settings: 10 days, 0 to 100 scale (0 no effect, 100 complete control)
How it was run: as §1

[14] = system: barnyardgrass; assay: Test D flooded paddy test; assay type: in vivo, Echinochloa crus-galli; settings: 250 g ai/ha, applied to paddy water, visual rating after 13 to 14 days, scale 0 to 100 (0 no effect, 100 complete control)
How it was run: as §2

[15] = system: barnyardgrass; assay: Test C preemergence; assay type: in vivo, Echinochloa crusgalli
How it was run: as §1

[16] = system: barnyardgrass; assay: Test C postemergence; assay type: in vivo, Echinochloa crusgalli; settings: 10 days, 0 to 100 scale (0 no effect, 100 complete control)
How it was run: as §1

[17] = system: corn; assay: Test C preemergence; assay type: in vivo, Zea mays
How it was run: as §1

[18] = system: sedge, umbrella; assay: Test D flooded paddy test; assay type: in vivo, Cyperus difformis; settings: 250 g ai/ha, applied to paddy water, visual rating after 13 to 14 days, scale 0 to 100 (0 no effect, 100 complete control)
How it was run: as §2

[19] = system: kochia; assay: Test C postemergence; assay type: in vivo, Bassia scoparia; settings: 10 days, 0 to 100 scale (0 no effect, 100 complete control)
How it was run: as §1

[20] = system: wheat; assay: Test C postemergence; assay type: in vivo, Triticum aestivum; settings: 10 days, 0 to 100 scale (0 no effect, 100 complete control)
How it was run: as §1

[21] = system: foxtail, giant; assay: Test C preemergence; assay type: in vivo, Setaria faberi
How it was run: as §1

[22] = system: ducksalad; assay: Test D flooded paddy test; assay type: in vivo, Heteranthera limosa; settings: 250 g ai/ha, applied to paddy water, visual rating after 13 to 14 days, scale 0 to 100 (0 no effect, 100 complete control)
How it was run: as §2

[23] = system: pigweed, palmer; assay: Test C preemergence; assay type: in vivo, Amaranthus palmeri
How it was run: as §1

[24] = system: horseweed; assay: Test C postemergence; assay type: in vivo, Erigeron canadensis; settings: 10 days, 0 to 100 scale (0 no effect, 100 complete control)
How it was run: as §1

[25] = system: ryegrass, Italian; assay: Test C postemergence; assay type: in vivo, Lolium multiflorum; settings: 10 days, 0 to 100 scale (0 no effect, 100 complete control)
How it was run: as §1

[26] = system: soybean; assay: Test C postemergence; assay type: in vivo, Glycine max; settings: 10 days, 0 to 100 scale (0 no effect, 100 complete control)
How it was run: as §1

[27] = system: blackgrass; assay: Test C preemergence; assay type: in vivo, Alopecurus myosuroides
How it was run: as §1

[28] = system: wheat; assay: Test C preemergence; assay type: in vivo, Triticum aestivum
How it was run: as §1

[29] = 500 g ai/ha, preemergence, 0 to 100 scale (0 no effect, 100 complete control)
[30] = Preemergence, 125 g ai/ha, 0 to 100 scale, 0 no effect, 100 complete control

CC(C)(C)c1ncn(-c2cc(C(=O)N3CC(C(F)(F)F)Oc4c(Cl)cccc43)ccn2)n1 (stereo not drawn) [Compound 322]
Ryegrass, Italian plant response rating [1, 29]: 80
Plant response rating, Ryegrass, Italian [1, 30]: 60
Kochia plant response rating [2, 29]: 40
Plant response rating, Kochia [2, 30]: 20
Plant response rating, Oat, Wild ([3]; 500 g ai/ha, postemergence): 30
Plant response rating, Oat, Wild ([3]; Postemergence, 125 g ai/ha): 0
Plant response rating, Pigweed, Palmer ([4]; 500 g ai/ha, postemergence): 90
Plant response rating, Pigweed, Palmer ([4]; Postemergence, 125 g ai/ha): 50
Plant response rating, Foxtail, Giant ([5]; 500 g ai/ha, postemergence): 90
Plant response rating, Foxtail, Giant ([5]; Postemergence, 125 g ai/ha): 50
Plant response rating, Blackgrass ([6]; 500 g ai/ha, postemergence): 40
Plant response rating, Blackgrass ([6]; Postemergence, 125 g ai/ha): 10
Oat, Wild plant response rating [7, 29]: 30
Plant response rating, Oat, Wild [7, 30]: 0
Plant response rating, Rice (Flood) [8]: 0
Plant response rating, Ragweed [9]: 0
Soybean plant response rating [10, 29]: 70
Plant response rating, Soybean [10, 30]: 0
Plant response rating, Corn ([11]; 500 g ai/ha, postemergence): 10
Plant response rating, Corn ([11]; Postemergence, 125 g ai/ha): 10
Plant response rating, Galium ([12]; 500 g ai/ha, postemergence): 70
Plant response rating, Galium ([12]; Postemergence, 125 g ai/ha): 70
Plant response rating, Ragweed ([13]; 500 g ai/ha, postemergence): 50
Plant response rating, Ragweed ([13]; Postemergence, 125 g ai/ha): 40
Plant response rating, Barnyardgrass (Flood) [14]: 0
Barnyardgrass plant response rating [15, 29]: 90
Plant response rating, Barnyardgrass [15, 30]: 40
Plant response rating, Barnyardgrass ([16]; 500 g ai/ha, postemergence): 50
Plant response rating, Barnyardgrass ([16]; Postemergence, 125 g ai/ha): 40
Corn plant response rating [17, 29]: 30
Plant response rating, Corn [17, 30]: 30
Plant response rating, Sedge, Umbrella (Flood) [18]: 0
Plant response rating, Kochia ([19]; 500 g ai/ha, postemergence): 80
Plant response rating, Kochia ([19]; Postemergence, 125 g ai/ha): 60
Plant response rating, Wheat ([20]; 500 g ai/ha, postemergence): 20
Plant response rating, Wheat ([20]; Postemergence, 125 g ai/ha): 20
Foxtail, Giant plant response rating [21, 29]: 100
Plant response rating, Foxtail, Giant [21, 30]: 90
Plant response rating, Ducksalad (Flood) [22]: 0
Pigweed, Palmer plant response rating [23, 29]: 90
Plant response rating, Pigweed, Palmer [23, 30]: 40
Plant response rating, Horseweed ([24]; 500 g ai/ha, postemergence): 0
Plant response rating, Horseweed ([24]; Postemergence, 125 g ai/ha): 0
Plant response rating, Ryegrass, Italian ([25]; 500 g ai/ha, postemergence): 40
Plant response rating, Ryegrass, Italian ([25]; Postemergence, 125 g ai/ha): 20
Plant response rating, Soybean ([26]; 500 g ai/ha, postemergence): 100
Plant response rating, Soybean ([26]; Postemergence, 125 g ai/ha): 60
Blackgrass plant response rating [27, 29]: 40
Plant response rating, Blackgrass [27, 30]: 40
Wheat plant response rating [28, 29]: 20
Plant response rating, Wheat [28, 30]: 0
